The values below come from PMC3218054, “Characterisation of the Interaction of the C-Terminus of the Dopamine D2 Receptor with Neuronal Calcium Sensor-1” (PLoS ONE, 2011).

Like-named read-outs stand apart in the source and are kept apart here. Ends that are not written are not given here.

The target of data set [1] is T1, NCS-1 (Rattus norvegicus, UniProt P62168).
T1 construct: His tag (TEV-cleavable, pET-M11) (N, cleaved yes); made in house; host or cells: E. coli BL21 (DE3)
The data set is described as follows: Intrinsic tryptophan fluorescence titration of peptide binding to wild type NCS-1. As for the experimental part: (§1) An expression construct of Rattus norvegicus NCS-1 [6] was sub-cloned from a pGEX-6p plasmid expressing NCS-1 [36] into pET-M11 vector. The primers were designed based on the cDNA sequence obtained from GenBank accession no. L27421 with Nco-1 and Kpn-1 as restriction digest sites. The sense and antisense strands were 5′[…] 3′ and 5′[…] CTA TAC CAG CCC GTC GTA 3 ′ respectively. Polymerase chain reaction was carried out using KOD Hot Start DNA Polymerase from Novagen. Confirmation of the insert was obtained through DNA sequencing. The R102Q mutation was generated by site-directed mutagenesis.
NCS-1 plasmid was transformed into E.coli strain BL21 (DE3) (Novagen). Protein expression in Luria Broth (LB) and 2M9 minimal media performed by growing the cells to mid log (0.6–0.7 OD A^o600) at 30 °C; after induction with 1 mM IPTG the culture was left to grow overnight at 18 °C. ^15N NCS-1 and doubly labelled ^13C^15N proteins were expressed using 2M9 media containing ^15NH4Cl only or ^13C glucose and ^15NH4Cl as the carbon and nitrogen source. 1 ml of the starter culture was grown in LB overnight, centrifuged, and the pellet added to a 50 ml labelled media and left to grow overnight in 50 ml labelled culture. The overnight culture was used to inoculate the labelled growth medium so that the starting optical density was less than 0.1 A-600 and protein expressed as described above. […]
(§2) To monitor intrinsic tryptophan fluorescence of NCS-1 proteins, [37], purified recombinant NCS-1 at a concentration of 1 µM in a calcium free buffer (20 mM HEPES, 139 mM NaCl, 2 mM ATP, 5 mM EGTA, 5 mM nitrolotriacetic acid, pH 7.4) were excited at room temperature with 280 nm light, and their emission spectra from 290–410 nm were measured, using a Jasco FP-6300 spectrofluorometer (Tokyo, Japan). The concentration of free calcium was increased by addition of CaCl2 to give a calculated free Ca^2+ concentration of 1 µM and an additional emission spectrum were measured. The D2 peptide was then added to give incremental increase in peptide concentration with emission spectra measured after each addition. The data for the measured fluorescence change at each peptide concentration were fitted to a logistic fit using non-linear curve fitting in OriginPro (Microcal).
Figure 2 Binding of the dopamine D2 receptor C-terminus to NCS-1 monitored using tryptophan fluorescence. (A) The spectra represent intrinsic tryptophan fluorescence of NCS-1 before and after addition 1 µM Ca^2+ and after subsequent addition of the D2SR peptide. (B) Extent of the changes in tryptophan fluorescence following sequential additions of D2SR peptide to the final concentrations indicated. […]

The target of data set [2] is T1, NCS-1. The data set is described as follows: NMR titration / chemical shift mapping of peptide binding to NCS-1. As for the experimental part: as §1
NCS-1 plasmid was transformed into E.coli strain BL21 (DE3) (Novagen). Protein expression in Luria Broth (LB) and 2M9 minimal media performed by growing the cells to mid log (0.6–0.7 OD A^o600) at 30 °C; after induction with 1 mM IPTG the culture was left to grow overnight at 18 °C. ^15N NCS-1 and doubly labelled ^13C^15N proteins were expressed using 2M9 media containing ^15NH4Cl only or ^13C glucose and ^15NH4Cl as the carbon and nitrogen source. 1 ml of the starter culture was grown in LB overnight, centrifuged, and the pellet added to a 50 ml labelled media and left to grow overnight in 50 ml labelled culture. The overnight culture was used to inoculate the labelled growth medium so that the starting optical density was less than 0.1 A-600 and protein expressed as described above. Cells were harvested and resuspended into the lysis buffer (50 mM TrisHCl, 200 mM NaCl 5 mMCaCl2 pH 7.5 plus a tablet per litre of culture of Complete EDTA Free Protease inhibitor (Roche Applied Science).
NCS-1 was prepared in Tris buffer pH 6.8 in the presence of 5 mM MgCl2 and 5 mM CaCl2. Unless otherwise state, NMR spectra were recorded at 27 °C on Bruker DRX 800 and 600 MHz spectrometers equipped with CryoProbes. Data were processed using the Bruker Software TopSpin and analysed using CCPN software. Sequence-specific backbone and side-chain resonance assignment of NCS-1 was transferred from the previously reported assignments on unmyristoylated Ca^2+ loaded NCS-1 (Biological Magnetic Resonance Data Bank accession number 4378); however, due to differences in sample conditions and temperature, many resonances were re-assigned during the course of these studies using HNCA, HN(CO)CA, HNCO, HN(CA)CO, CBCA(CO)NH, CBCANH, HBHA(CO)NH and HCCH-TOCSY experiments. In addition, the resonance assignment for the aromatic side-chain had been incomplete. The aromatic side-chains were partially assigned using 2D [^1H, ^13C] -TROSY, and homonuclear TOCSY and NOESY spectra recorded in D2O.
(§3) Two peptides D2 and D2SR were used for the NMR studies. […] The peptides were first dissolved in minimal amounts of DMSO (approximately 1–2 µl) before adding the protein solution to achieve the appropriate peptide to protein ratio.
The minimum chemical-shift differences between free and D2-bound NCS-1 were expressed as: Δδ = √ {(ΔH/0.03)^2 + (ΔN/0.03)^2}. Values of Δδ greater than 0.07 were considered significant.
Figure 3 Interactions between NCS-1 and D2 Peptide monitored using NMR spectroscopy. (A) ^1H^15N HSQC spectra of ^15N,^13C NCS-1 (1 mM) in 50 mM Tris buffer, 50 mM NaCl, 5 mM CaCl2, pH 6.5, 300 K on Avance Bruker 800 MHz spectrometer in the absence (black) or in the presence of D2SR at a final concentration of 5 mM (red). (B) Sections of ^1H^15N HSQC spectra of ^15N,^13C NCS-1 showing the progression of peaks throughout the peptide titration (from black to red). Shown are the various characteristics of resonance perturbation ranging from complete line-broadening to gradual change in chemical shifts or a mixture of shifts and line-broadening. (C) ^1H^13C HSQC spectra of ^15N,^13C NCS-1 (1 mM) (black) in the presence of D2SR (final concentration of 5 mM) (red) indicating some of the resolved methyl groups with most significant shift changes.

For data set [3], the system named is NCS-1. Particulars: receptor residues 428–435; cited from earlier work. The text has this: This seems surprising as these are the cytoplasmic residues in closest proximity to the transmembrane domain of the receptor and that in the structure of the dopamine D3 receptor (PDB accession 3PBL), the first two amino acids TF form part of penultimate helix VII of the receptor, rather than the C-terminus helix VIII.

Data set [4] is described as follows: Solubility of peptides in aqueous buffer. It is filed as physicochemical.
From the text: The peptide (hereafter referred to as D2 peptide) used here corresponds to residues 428–443 of the human D2 receptor. The synthetic D2 peptide ([…]) and its modified form D2SR ([…]), were purchased from Peptide Protein Research Ltd., Fareham, PO15 6DP, UK. The shorter form, corresponding to residues 428–435 ([…]) were, purchased from GenicBio, China. The peptides was delivered >95% pure. […] Therefore, in all the experiments, peptide samples were first dissolved in a minimal amount of DMSO and then diluted with the relevant buffer. If necessary, pH values of the samples were re-adjusted to the desired value.
as §3

The next data set concerns the target T2, R102Q NCS-1 (Rattus norvegicus, UniProt P62168, R102Q).
T2 construct: His tag (TEV-cleavable, pET-M11) (N, cleaved yes); made in house; host or cells: E. coli BL21 (DE3)
In words: Intrinsic tryptophan fluorescence titration of peptide binding to R102Q NCS-1. As for the experimental part:
as §1, §2
Figure 6 Significant line-broadening in the C-terminal region of NCS-1 and effect of the R102Q mutation on peptide binding. […] (B) Extent of the changes in tryptophan fluorescence following sequential additions of D2SR peptide to the final concentrations indicated in the presence of 1 µM Ca^2+. […] (C) Curve fitting of data from separate tryptophan fluorescence experiments enables determination of the concentration of D2SR peptide required for half-maximal binding and the Hill coefficient for wild type and R102Q NCS-1. […]

The test system of data set [5] is NCS-1. The data set is described as follows: Peptide binding to NCS-1, preliminary data (technique not stated).
Setting [6] is: up to a 10-fold excess of peptide.

T1 sequence (P62168 whole entry): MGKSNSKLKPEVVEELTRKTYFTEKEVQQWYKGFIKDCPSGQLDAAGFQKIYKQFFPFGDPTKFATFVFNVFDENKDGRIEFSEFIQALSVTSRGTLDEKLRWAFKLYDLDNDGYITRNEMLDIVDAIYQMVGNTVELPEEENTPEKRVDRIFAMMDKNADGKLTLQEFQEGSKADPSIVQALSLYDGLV
T2 sequence (P62168 whole entry R102Q): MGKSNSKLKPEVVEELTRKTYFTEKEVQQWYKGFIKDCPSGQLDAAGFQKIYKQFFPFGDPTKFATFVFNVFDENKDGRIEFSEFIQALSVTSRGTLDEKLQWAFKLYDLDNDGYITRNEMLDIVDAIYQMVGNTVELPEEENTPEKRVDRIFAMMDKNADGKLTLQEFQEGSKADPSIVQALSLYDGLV

“TFNIEFRK [shorter form, corresponding to residues 428–435 of the D2 receptor]”: the “ability to bind NCS-1 (restated finding, binding assays)” value on NCS-1 [1] (8-residue peptide, binding assays = fluorescence and NMR titrations) was “not able to bind NCS-1”. In addition, the “interaction with NCS-1 by fluorescence titration” value at NCS-1 [1] (setting [6]) is recorded as “no evidence for an interaction”. Also, the “interaction with NCS-1 by NMR titration” value on NCS-1 [2] (setting [6]) is given as “no evidence for an interaction”. For the same sequence, the “binding to NCS-1 (yeast 2-hybrid)” value in the data set on NCS-1 [3] was “shortest peptide that could bind NCS-1”.

Take TFNIEFRKAFLKILHC [D2 peptide]: in data set [4], the “solubility in aqueous buffer” value is “rather insoluble in aqueous buffer”.

With TFNIEFRKAFLKILHSR [D2SR], the “change in NCS-1 tryptophan fluorescence above that following addition of 1 µM free Ca^2+” value on NCS-1 [1] (1 µM free Ca^2+) was “additional increase in fluorescence of a similar magnitude”. In addition, the Hill coefficient on NCS-1 [1] (D2SR, wild type NCS-1, 1 µM free Ca^2+, logistic fit, n = 5) was roughly 1.5. In addition, at R102Q NCS-1 (D2SR, R102Q NCS-1, 1 µM Ca^2+, logistic fit, n = 4), the Hill coefficient entry is reported as “around 1.5”. Besides, the “increase in affinity of the protein for D2SR by R102Q mutation” value on R102Q NCS-1 (R102Q (n = 4) versus wild type (n = 5) NCS-1, 1 µM Ca^2+, unpaired Student's t-test) was found to be 2.07 fold. Further, on R102Q NCS-1 (compared with wild-type NCS-1), the “affinity of binding to R102Q versus wild type NCS-1” value is listed as “affinity of binding was increased in the mutant”. In addition, on NCS-1 [2] (HSQC titration, D2SR), the “exchange regime of NCS-1 resonances” value is on record as “intermediate to fast exchange regime”; the “least affected NCS-1 regions” value is “helices1, 5, 8 and part of 2”; the “most affected NCS-1 regions, mapped onto 1G8I” value was “residues located either in the hydrophobic ligand-binding crevice or in the regions linking the helical regions of the EF hands”. In addition, the “NCS-1 resonance perturbation (chemical shift changes/broadening)” value at NCS-1 [2] (^1H-^15N and ^1H-^13C HSQC of ^15N,^13C NCS-1, 27 °C and 35 °C) is “At both temperatures chemical shift changes and/or broadening of specific NCS-1 resonances were observed”. For the same sequence, the “line-broadening of C-terminal residues 180–190 (helix 11) of NCS-1” value on NCS-1 [2] (^1H^15N HSQC, peptide titration, 1 mM NCS-1, 0.5 mM D2SR, pH 6.5, 300 K) is recorded as “line-broadening occurring at sub-stoichiometric concentrations of D2SR”. The “solubility in aqueous buffer” value in data set [4] (peptides first dissolved in DMSO, then diluted with buffer) is “rather insoluble in aqueous buffer”. Further, the “solubility improvement over D2 peptide” value in data set [4] (two extra amino acids intended to increase solubility) is listed as “solubility improvement was only marginal”.

Take NIEFRKAFLKILHS: in the data set with NCS-1 [5], the “affinity for NCS-1 relative to TFNIEFRKAFLKILHS” value was “able to bind NCS-1 with similar affinity to […]”.

One may read the Hill coefficient as the slope factor of the fitted curve.
